Measured values as given in article PMC7352952, “Peptides Derived from (RRWQWRMKKLG)2-K-Ahx Induce Selective Cellular Death in Breast Cancer Cell Lines through Apoptotic Pathway” (International Journal of Molecular Sciences, 2020).
Bridge positions count the residues as written; N and C are the ends. Square brackets hold non-standard residues; d marks the D form. Peptide text beside a SMILES is read from it. I, II: the chains in the order shown. Ahx = NCCCCCC(=O)O

Assays:
MCF-7 cell line = test: MTT viability test, MCF-7 cells; format: cell-based, human
Method: (§1) For all cell lines, the medium used was Dulbecco’s Modified Eagle’s Medium (DMEM)/Nutrient Mixture F-12 Ham. For the HTB-132, MCF-7, and MCF-12A lines, the medium was supplemented with 10% fetal bovine serum (SFB), and 1.5 g/L NaHCO3 and NaOH were added up to pH 7.4, amphotericin (200 μg/mL), and 1% penicillin and streptomycin. For the primary culture cells of bovine mammary epithelium and fibroblasts, in addition to the above, hydrocortisone (250 μg/mL) was added. All media were filtered through a 0.22 μm membrane.
(§2) Briefly, the cells were seeded with a complete medium in 96-well plates at a rate of 10,000 cells and 100 µL per well, and adhesion to the plates was allowed for 24 h. Subsequently, the complete medium was removed and an incomplete medium was added for synchronization for another 24 h. The cells were then incubated at 37 °C for 2, 24, or 48 h with 100 μL of peptide at the concentrations to be evaluated (200, 100, 50, 25, 12.5, 6.25 and 3.1 μg/mL). Next, the peptide was removed from the box, and 100 µL of incomplete medium with 10% 3-4,5-dimethylthiazol-2-yl-2,5-diphenyltetrazole (MTT) bromide was added and incubated for 4 h. The medium was replaced with 100 μL of isopropanol (IPA), and after 30 min of incubation at 37 °C, the absorbance was measured at 575 nm. As a negative control, an incomplete culture medium with 10% MTT was used, and as a positive control, cells without MTT treatment were used.

HTB-132 cell line = test: MTT viability test, HTB-132 cells; format: cell-based, human; conditions: for cytotoxic effect against HTB-132 compared with ^26[M] (in words) / IC50, cytotoxic effect, HTB-132: MTT; for cytotoxic effect against HTB-132 compared with ^26[M] (in words) / IC50: 24 h; for IC50, cytotoxic effect, HTB-132: 24 h at 37 °C, mean of n = 3; for IC50: human, pH 7.4
Method: as §1, §2

[1] = test system: MDA-MB 231 breast cancer cells; conditions: cited from earlier work
From the text: (§3) Breast cancer is the most common cancer type diagnosed worldwide. There are 2.1 million cases annually, and 627,000 deaths of women due to this disease were reported in 2018 [5]. […] However, when this motif was modified or included in longer sequences, the cytotoxic effect against human cancer cell lines increased. In ...

[2] = test system: MDA-MB 468 breast cancer cells; conditions: cited from earlier work
From the text: as §3

Compound	cytotoxic effect against HTB-132 compared with ^26[M] (in words) (HTB-132 cell line)	IC50, cytotoxic effect, HTB-132 (HTB-132 cell line) [µg/mL]	IC50 (HTB-132 cell line) [µM]	other results
CC(C)C[C@H](NC(=O)[C@H](CCCCN)NC(=O)[C@H](CCCCN)NC(=O)[C@H](C)NC(=O)[C@H](CCCNC(=N)N)NC(=O)[C@H](Cc1c[nH]c2ccccc12)NC(=O)[C@H](CCC(N)=O)NC(=O)[C@H](Cc1c[nH]c2ccccc12)NC(=O)[C@H](CCCNC(=N)N)NC(=O)[C@@H](N)CCCNC(=N)N)C(=O)NCC(=O)NCCCC[C@H](NC(=O)CNC(=O)[C@H](CC(C)C)NC(=O)[C@H](CCCCN)NC(=O)[C@H](CCCCN)NC(=O)[C@H](C)NC(=O)[C@H](CCCNC(=N)N)NC(=O)[C@H](Cc1c[nH]c2ccccc12)NC(=O)[C@H](CCC(N)=O)NC(=O)[C@H](Cc1c[nH]c2ccccc12)NC(=O)[C@H](CCCNC(=N)N)NC(=O)[C@@H](N)CCCNC(=N)N)C(=O)NCCCCCC(N)=O [^26[A], (RRWQWRAKKLG)2-K-Ahx] (I: H-RRWQWRAKKLGK[Ahx]-NH2 / II: H-RRWQWRAKKLG; amide I:12-II:C)	–	–	–	cytotoxic effect against MCF-7 compared with ^26[M] (in words) (MCF-7 cell line; MTT, 24 h): greater cytotoxic effect against MCF-7 cells than the peptide; IC50, cytotoxic effect, MCF-7 (MCF-7 cell line; MTT, 24 h at 37 °C, three independent experiments with n = 4 each): > 200 µg/mL; IC50 (MCF-7 cell line; human, 24 h, pH 7.4): > 60 µM
CC(C)C[C@H](NC(=O)[C@H](CCCCN)NC(=O)[C@H](CCCCN)NC(=O)[C@H](CC(=O)O)NC(=O)[C@H](CCCNC(=N)N)NC(=O)[C@H](Cc1c[nH]c2ccccc12)NC(=O)[C@H](CCC(N)=O)NC(=O)[C@H](Cc1c[nH]c2ccccc12)NC(=O)[C@H](CCCNC(=N)N)NC(=O)[C@@H](N)CCCNC(=N)N)C(=O)NCC(=O)NCCCC[C@H](NC(=O)CNC(=O)[C@H](CC(C)C)NC(=O)[C@H](CCCCN)NC(=O)[C@H](CCCCN)NC(=O)[C@H](CC(=O)O)NC(=O)[C@H](CCCNC(=N)N)NC(=O)[C@H](Cc1c[nH]c2ccccc12)NC(=O)[C@H](CCC(N)=O)NC(=O)[C@H](Cc1c[nH]c2ccccc12)NC(=O)[C@H](CCCNC(=N)N)NC(=O)[C@@H](N)CCCNC(=N)N)C(=O)NCCCCCC(N)=O [^26[D], (RRWQWRDKKLG)2-K-Ahx] (I: H-RRWQWRDKKLGK[Ahx]-NH2 / II: H-RRWQWRDKKLG; amide I:12-II:C)	lower cytotoxic effect against HTB-132 cells than the original dimeric peptide	> 200	> 60	–
CC(C)C[C@H](NC(=O)[C@H](CCCCN)NC(=O)[C@H](CCCCN)NC(=O)[C@H](CCCCN)NC(=O)[C@H](CCCNC(=N)N)NC(=O)[C@H](Cc1c[nH]c2ccccc12)NC(=O)[C@H](CCC(N)=O)NC(=O)[C@H](Cc1c[nH]c2ccccc12)NC(=O)[C@H](CCCNC(=N)N)NC(=O)[C@@H](N)CCCNC(=N)N)C(=O)NCC(=O)NCCCC[C@H](NC(=O)CNC(=O)[C@H](CC(C)C)NC(=O)[C@H](CCCCN)NC(=O)[C@H](CCCCN)NC(=O)[C@H](CCCCN)NC(=O)[C@H](CCCNC(=N)N)NC(=O)[C@H](Cc1c[nH]c2ccccc12)NC(=O)[C@H](CCC(N)=O)NC(=O)[C@H](Cc1c[nH]c2ccccc12)NC(=O)[C@H](CCCNC(=N)N)NC(=O)[C@@H](N)CCCNC(=N)N)C(=O)NCCCCCC(N)=O [^26[K], (RRWQWRKKKLG)2-K-Ahx] (I: H-RRWQWRKKKLGK[Ahx]-NH2 / II: H-RRWQWRKKKLG; amide I:12-II:C)	lower cytotoxic effect against HTB-132 cells than the original dimeric peptide	> 200	> 60	–
RRWQWR [minimal motif peptide of LfcinB, reference compound]	–	–	–	cytotoxic effect against MDA-MB-231 (in words) [1]: low cytotoxic effect; cytotoxic effect against MDA-MB-468 (in words) [2]: low cytotoxic effect
